Experimental data taken from patent US12421254B2, “KRAS modulators and uses thereof” (Quanta Therapeutics, Inc., priority 2023, dated 2025).

What was measured:
[1] = target: GST-tagged KRAS-G12D (2-169) (Homo sapiens, UniProt P01116, G12D); assay: Nucleotide exchange assay (NEA), SOS-mediated, HTRF, KRAS G12D; format: biochemical; conditions: Table 4; IC50 extracted at 30 min; 20 nM SOScat; read-out: NEA G12D IC50
Outline: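 Compound preincubated 1 h at RT with 0.25 nM GST-KRAS-G12D (2-169) and anti-GST Tb donor, then 20 nM SOS1cat (564-1049) and 150 nM GTP-DY-647P1 added; pH 7.3 HEPES buffer with MgCl2 and DTT. HTRF monitored at RT; % inhibition versus DMSO and no-SOS blank, 4-parameter IC50 taken at 30 min.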

[2] = target: GST-tagged KRAS-G12V (2-169) (Homo sapiens, UniProt P01116, G12V); assay: Nucleotide exchange assay (NEA), SOS-mediated, HTRF, KRAS G12V; format: biochemical; conditions: Table 4; IC50 extracted at 90 min; 80 nM SOS
Outline: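 GST-KRAS-G12V (2-169), 0.25 nM, pre-incubated 1 h at RT with compound, then SOS1cat (564-1049) 80 nM and GTP-DY-647P1 150 nM added in HEPES pH 7.3 buffer with MgCl2 and DTT. HTRF via anti-GST Tb cryptate read over 90 min; IC50 from 4-parameter fit at 90 min, blanked to no-SOS reactions.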

Chain of GST-tagged KRAS-G12D (2-169) (P01116 2-169 isoform P01116-2 G12D): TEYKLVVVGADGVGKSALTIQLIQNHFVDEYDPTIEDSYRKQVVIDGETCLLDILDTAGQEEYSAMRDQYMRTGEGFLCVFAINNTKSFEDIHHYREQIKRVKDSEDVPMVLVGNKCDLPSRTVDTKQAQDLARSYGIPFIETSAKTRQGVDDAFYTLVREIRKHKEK
Chain of GST-tagged KRAS-G12V (2-169) (P01116 2-169 isoform P01116-2 G12V): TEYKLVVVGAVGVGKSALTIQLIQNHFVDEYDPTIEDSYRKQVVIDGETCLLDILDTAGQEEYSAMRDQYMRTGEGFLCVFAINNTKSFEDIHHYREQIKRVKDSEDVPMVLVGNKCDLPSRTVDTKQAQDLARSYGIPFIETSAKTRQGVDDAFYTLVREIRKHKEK

Row | Compound | IC50 [1] [µM] | IC50 [2] [µM]
1 | CCN(c1nc(OC[C@@]23CCCN2C[C@H](F)C3)nc(N2CC3(C2)c2c(sc(N)c2C#N)C2CC23)n1)[C@H](C)c1cccnc1N (stereo partly drawn) [Compound 212, 8-amino-1′-[4-[[(1R)-1-(2-amino-3-pyridyl)ethyl]-ethyl-amino]-6-[[(2R,8S)-2-fluoro-1,2,3,5,6,7-hexahydropyrrolizin-8-yl]methoxy]-1,3,5-triazin-2-yl]spiro[9-thiatricyclo[4.3.0.02,4]nona-1(6),7-diene-5,3′-azetidine]-7-carbonitrile] | < 0.01 | < 0.01
2 | CN(c1nc(OC[C@@]23CCCN2C[C@H](F)C3)nc(N2CC3(C2)SCc2sc(N)c(C#N)c23)n1)[C@H]1[C@H]2CN[C@@H]1C2 [Compound 257, 2-amino-1′-[4-[[(1R,4R,5S)-2-azabicyclo[2.1.1]hexan-5-yl]-methyl-amino]-6-[[(2R,8S)-2-fluoro-1,2,3,5,6,7-hexahydropyrrolizin-8-yl]methoxy]-1,3,5-triazin-2-yl]spiro[6H-thieno[3,4-b]thiophene-4,3′-azetidine]-3-carbonitrile] | < 0.01 | 0.01 to 0.1
3 | N#Cc1c(N)sc2c1C1(CC2)CN(c2nc(OC[C@@]34CCCN3C[C@H](F)C4)nc(N3CCC[C@@H](O)C3)n2)C1 [Compound 23, 2-amino-1′-[4-[[(2R,8S)-2-fluoro-1,2,3,5,6,7-hexahydropyrrolizin-8-yl]methoxy]-6-[(3R)-3-hydroxy-1-piperidyl]-1,3,5-triazin-2-yl]spiro[5,6-dihydrocyclopenta[b]thiophene-4,3′-azetidine]-3-carbonitrile] | 0.1 to 1 | 0.1 to 1
4 | N#Cc1c(N)sc2c1C1(CN(c3nc(OC[C@@]45CCCN4C[C@H](F)C5)nc(N(CC(=O)O)Cc4cccnc4N)n3)C1)SC2 [Compound 187, 2-[[4-(2-amino-3-cyano-spiro[6H-thieno[3,4-b]thiophene-4,3′-azetidine]-1′-yl)-6-[[(2R,8S)-2-fluoro-1,2,3,5,6,7-hexahydropyrrolizin-8-yl]methoxy]-1,3,5-triazin-2-yl]-[(2-amino-3-pyridyl)methyl]amino]acetic acid] | 0.01 to 0.1 | < 0.01
5 | CC(C1=NN=CC1Cl)N(C)c1nc(OC[C@@]23CCCN2C[C@H](F)C3)nc(N2CC3(CCc4sc(N)c(C#N)c43)C2)n1 (stereo partly drawn) [Compound 127, 2-amino-1′-[4-[1-(4-chloro-1H-pyrazol-5-yl)ethyl-methyl-amino]-6-[[(2R,8S)-2-fluoro-1,2,3,5,6,7-hexahydropyrrolizin-8-yl]methoxy]-1,3,5-triazin-2-yl]spiro[5,6-dihydrocyclopenta[b]thiophene-4,3′-azetidine]-3-carbonitrile] | 1 to 20 | 0.1 to 1
6 | N#Cc1c(N)sc2c1C1(CC2)CN(c2nc(OCC3(CN4CCOCC4)CC3)nc(N3CCCC(O)(CO)C3)n2)C1 (stereo not drawn) [Compound 95, 2-amino-1′-[4-[3-hydroxy-3-(hydroxymethyl)-1-piperidyl]-6-[[1-(morpholinomethyl)cyclopropyl]methoxy]-1,3,5-triazin-2-yl]spiro[5,6-dihydrocyclopenta[b]thiophene-4,3′-azetidine]-3-carbonitrile] | 0.01 to 0.1 | 0.01 to 0.1
7 | N#Cc1c(N)sc2c1C1(CN(c3nc(OCC4(CN5CCOCC5)CC4)nc(N4CCNC[C@@H]4C(F)F)n3)C1)SC2 [Compound 193, (R)-2′-amino-1-(4-(2-(difluoromethyl)piperazin-1-yl)-6-((1-(morpholinomethyl)cyclopropyl)methoxy)-1,3,5-triazin-2-yl)-6′H-spiro[azetidine-3,4′-thieno[3,4-b]thiophene]-3′-carbonitrile] | < 0.01 | 0.01 to 0.1
8 | CCN(c1nc(OCC2(CO)CCCN2)nc(N2CC3(C2)SCc2sc(N)c(C#N)c23)n1)[C@H](C)c1cccnc1N (stereo partly drawn) [Compound 208, 2-amino-1′-[4-[[(1R)-1-(2-amino-3-pyridyl)ethyl]-ethyl-amino]-6-[[2-(hydroxymethyl)pyrrolidin-2-yl]methoxy]-1,3,5-triazin-2-yl]spiro[6H-thieno[3,4-b]thiophene-4,3′-azetidine]-3-carbonitrile] | < 0.01 | < 0.01
9 | CN(Cc1cc(C(N)=O)nn1C)c1nc(OC[C@@]23CCCN2C[C@H](F)C3)nc(N2CC3(CCc4sc(N)c(C#N)c43)C2)n1 [Compound 135, 5-[[[4-(2-amino-3-cyano-spiro[5,6-dihydrocyclopenta[b]thiophene-4,3′-azetidine]-1′-yl)-6-[[(2R,8S)-2-fluoro-1,2,3,5,6,7-hexahydropyrrolizin-8-yl]methoxy]-1,3,5-triazin-2-yl]-methyl-amino]methyl]-1-methyl-pyrazole-3-carboxamide] | 0.1 to 1 | 0.1 to 1
10 | C[C@@]1(O)CCCN(c2nc(OC[C@@]34CCCN3C[C@H](F)C4)nc(N3CC4(C3)c3c(sc(N)c3C#N)C[S+]4[O-])n2)C1 (stereo partly drawn) [Compound 126, 2-amino-5-oxo-1′-[4-[[(2R,8S)-2-fluoro-1,2,3,5,6,7-hexahydropyrrolizin-8-yl]methoxy]-6-[(3R)-3-hydroxy-3-methyl-1-piperidyl]-1,3,5-triazin-2-yl]spiro[6H-thieno[3,4-b]thiophene-4,3′-azetidine]-3-carbonitrile] | 0.01 to 0.1 | 1 to 20
11 | CCN(c1nc(OC[C@@H]2CC[C@@H]3CN(C)CCN32)nc(N2CC3(C2)SCc2sc(N)c(C#N)c23)n1)[C@H](C)c1cccnc1N (mixture of isomers) [Compound 216, 1′-[4-[[(6SR,8aRS)-2-methyl-3,4,6,7,8,8a-hexahydro-1H-pyrrolo[1,2-a]pyrazin-6-yl]methoxy]-6-[[(1R)-1-(2-amino-3-pyridyl)ethyl]-ethyl-amino]-1,3,5-triazin-2-yl]-2-amino-spiro[6H-thieno[3,4-b]thiophene-4,3′-azetidine]-3-carbonitrile] | 0.1 to 1 | < 0.01
12 | CC(c1cccnc1C(F)F)N(C)c1nc(OC[C@@]23CCCN2C[C@H](F)C3)nc(N2CC3(C2)SCc2sc(N)c(C#N)c23)n1 (stereo partly drawn) [Compound 205, 2-amino-1′-[4-[1-[2-(difluoromethyl)-3-pyridyl]ethyl-methyl-amino]-6-[[(2R,8S)-2-fluoro-1,2,3,5,6,7-hexahydropyrrolizin-8-yl]methoxy]-1,3,5-triazin-2-yl]spiro[6H-thieno[3,4-b]thiophene-4,3′-azetidine]-3-carbonitrile] | 1 to 20 | 0.1 to 1
13 | CN(c1nc(OC[C@@]23CCCN2C[C@H](F)C3)nc(N2CC3(CCc4sc(N)c(C#N)c43)C2)n1)[C@@H]1CCC[C@@H]1O (racemic) [Compound 92, 2-amino-1′-[4-[[(2R,8S)-2-fluoro-1,2,3,5,6,7-hexahydropyrrolizin-8-yl]methoxy]-6-[[rac-(1R,2S)-2-hydroxycyclopentyl]-methyl-amino]-1,3,5-triazin-2-yl]spiro[5,6-dihydrocyclopenta[b]thiophene-4,3′-azetidine]-3-carbonitrile] | 0.1 to 1 | 0.1 to 1
14 | CCN(c1nc(OCC23CCC(CN(C)C2)N3C)nc(N2CC3(C2)SCc2sc(N)c(C#N)c23)n1)[C@H](C)c1cccnc1N (stereo partly drawn) [Compound 218, 2′-amino-1-(4-(((R)-1-(2-aminopyridin-3-yl)ethyl)(ethyl)amino)-6-((3,8-dimethyl-3,8-diazabicyclo[3.2.1]octan-1-yl)methoxy)-1,3,5-triazin-2-yl)-6′H-spiro[azetidine-3,4′-thieno[3,4-b]thiophene]-3′-carbonitrile] | 0.01 to 0.1 | < 0.01
15 | Cc1ccc(C(C)N(C)c2nc(OC[C@@]34CCCN3C[C@H](F)C4)nc(N3CC4(C3)SCc3sc(N)c(C#N)c34)n2)c(N)n1 (stereo partly drawn) [Compound 230, 2′-amino-1-(4-((1-(2-amino-6-methylpyridin-3-yl)ethyl)(methyl)amino)-6-(((2R,7aS)-2-fluorotetrahydro-1H-pyrrolizin-7a(5H)-yl)methoxy)-1,3,5-triazin-2-yl)-6′H-spiro[azetidine-3,4′-thieno[3,4-b]thiophene]-3′-carbonitrile] | 1 to 20 | 1 to 20
16 | N#Cc1c(N)sc2c1C1(CN(c3nc(OC[C@@]45CCCN4C[C@H](F)C5)nc(N4C5COCC4C5)n3)C1)SC2 [Compound 265, 2-amino-1′-[4-[[(2R,8S)-2-fluoro-1,2,3,5,6,7-hexahydropyrrolizin-8-yl]methoxy]-6-(3-oxa-6-azabicyclo[3.1.1]heptan-6-yl)-1,3,5-triazin-2-yl]spiro[6H-thieno[3,4-b]thiophene-4,3′-azetidine]-3-carbonitrile] | 0.1 to 1 | 0.01 to 0.1
17 | N#Cc1c(N)sc2c1C1(CC2)CN(c2nc(OC[C@@]34CCCN3C[C@H](F)C4)nc(N3CCC[C@H](C#N)[C@@H]3CO)n2)C1 (racemic) [Compound 63, 2-amino-1′-[4-[rac-(2R,3S)-3-cyano-2-(hydroxymethyl)-1-piperidyl]-6-[[(2R,8S)-2-fluoro-1,2,3,5,6,7-hexahydropyrrolizin-8-yl]methoxy]-1,3,5-triazin-2-yl]spiro[3a,5-dihydrocyclopenta[b]thiophene-4,3′-azetidine]-3-carbonitrile] | 0.1 to 1 | 0.1 to 1
18 | N#Cc1c(N)sc2c1C1(CN(c3nc(OC[C@@]45CCCN4C[C@H](F)C5)nc(N4C5CNC(=O)C4C5)n3)C1)SC2 (stereo partly drawn) [Compound 267, 2-amino-1′-[4-[[(2R,8S)-2-fluoro-1,2,3,5,6,7-hexahydropyrrolizin-8-yl]methoxy]-6-(2-oxo-3,6-diazabicyclo[3.1.1]heptan-6-yl)-1,3,5-triazin-2-yl]spiro[6H-thieno[3,4-b]thiophene-4,3′-azetidine]-3-carbonitrile] | 0.01 to 0.1 | < 0.01
